{"source": "patent US20150056166A1", "about": "“FLAVONE DERIVATIVES AND THEIR USE” (Twincore GmbH, priority 2012, published 2015)", "key": {"J8 (GT2b)": {"system": "J8 (GT2b)", "assay": "Luciferase infection assay, chimeric reporter virus J8/2b/R2a in Huh7-Lunet/CD81 cells", "type": "cell-based, HCV", "conditions": "Hepatitis C virus, Huh-7, 72 h"}, "ED43 (GT4a)": {"system": "ED43 (GT4a)", "assay": "Luciferase infection assay, chimeric reporter virus ED43/4a/R2a in Huh7-Lunet/CD81 cells", "type": "cell-based, HCV", "conditions": "Hepatitis C virus, Huh-7, 72 h"}, "HK6a (GT6a)": {"system": "HK6a (GT6a)", "assay": "Luciferase infection assay, chimeric reporter virus HK6a/6a/R2a in Huh7-Lunet/CD81 cells", "type": "cell-based, HCV", "conditions": "Hepatitis C virus, Huh-7, 72 h"}, "[1]": {"system": "subgenomic JFH1 luciferase replicon", "assay": "HCV RNA translation and replication, subgenomic luciferase replicon in Huh7-Lunet/CD81 cells", "type": "cell-based", "conditions": "up to a dose of 10 μM, 72 h post transfection", "method": "(A) Huh7-Lunet/CD81 cells were transfected with the subgenomic luciferase replicon depicted at the top. Drugs were added 4 h post transfection and the level of HCV RNA translation and RNA replication was quantified by luciferase assays 72 h post transfection. Mean values of three independent experiments each with quadruplicate measurements including the standard deviation are shown. (B) Cells were transfected with the Jc1 chimera depicted above and drugs were added 4 h later. HCV virus release in the presence or absence of given compounds was determined by quantification of intracellular and extracellular core protein levels using a core-specific ELISA. Mean values of three independent experiments with single measurements including the error range are given. (C) Huh7-Lunet/CD81 cells were inoculated with Luc-Jc1 reporter viruses prepared in the absence of drugs. […] Infectivity was determined 72 h later by luciferase assays and compared to DMSO-treated controls. […]\nTo characterize the antiviral effect of BJ486K, the impact of BJ486K on the steps of HCV RNA translation and replication was assessed. To this end, Huh7-Lunet/CD81 cells were transfected with a subgenomic JFH1 luciferase replicon and RNA replication was monitored 72 h later by luciferase assays. […]"}, "S52 (GT3a)": {"system": "S52 (GT3a)", "assay": "Luciferase infection assay, chimeric reporter virus S52/3a/R2a in Huh7-Lunet/CD81 cells", "type": "cell-based, HCV", "conditions": "Hepatitis C virus, Huh-7, 72 h"}, "H77c (GT1a)": {"system": "H77c (GT1a)", "assay": "Luciferase infection assay, chimeric reporter virus H77c/1a/R2a in Huh7-Lunet/CD81 cells", "type": "cell-based, HCV", "conditions": "Hepatitis C virus, Huh-7, 72 h"}, "SA13 (GT5a)": {"system": "SA13 (GT5a)", "assay": "Luciferase infection assay, chimeric reporter virus SA13/5a/R2a in Huh7-Lunet/CD81 cells", "type": "cell-based, HCV", "conditions": "Hepatitis C virus, Huh-7, 72 h"}, "J4 (GT1b)": {"system": "J4 (GT1b)", "assay": "Luciferase infection assay, chimeric reporter virus J4/1b/R2a in Huh7-Lunet/CD81 cells", "type": "cell-based, HCV", "conditions": "Hepatitis C virus, Huh-7, 72 h"}, "[2]": {"system": "Luc-Jc1/E2/G451R reporter viruses", "assay": "Resistance test, Luc-Jc1 versus Luc-Jc1/E2/G451R reporter virus", "type": "cell-based, HCV", "conditions": "Huh7-Lunet/CD81 cells, luciferase 72 h", "method": "(§1) FIG. 4: BJ486K is not affected by viral resistance towards a SR-BI-targeting compound, inhibits HCV of different genotypes and prevents infection of primary human hepatocytes Huh7-Lunet/CD81 cells were inoculated with Luc-Jc1 or Luc-Jc1/E2/G451R reporter viruses in the presence of increasing doses of (A) ITX 5061 or (B) BJ486K. Cells were lysed 72 h later. Luciferase activity was determined and is expressed relative to control infections conducted in the presence of DMSO. Mean values of four independent experiments each with quadruplicate measurements including the standard deviation are shown. (C) Huh7-Lunet/CD81 cells were inoculated with genotype 1a, 1b, 2b, 3a, 4a, 5a and 6a chimeric reporter viruses in the presence of increasing doses of BJ486K. Luciferase activity was determined 72 h later and is expressed relative to infections in the presence of DMSO. Mean values of three independent experiments, each with triplicate measurements, are given. (D) Primary human hepatocytes were inoculated with Con1/C3 in the presence of DMSO or increasing concentrations of BJ486K. The inhibition of HCV infection was assessed by focus-formation assay and is expressed as % inhibition relative to DMSO-treated cells. Mean values of duplicate measurements including the error range are given. […]"}, "Con1/C3-HCV": {"system": "Con1/C3-HCV", "assay": "Infection of primary human hepatocytes, focus-formation assay", "type": "cell-based", "conditions": "Hepatitis C virus, genotype 1b, Hepatocyte, 72 h", "method": "as §1, with “(C) Huh7-Lunet/CD81 cells were inoculated with genotype 1a, 1b, 2b, 3a, 4a, 5a and 6a chimeric reporter viruses in the presence of increasing doses of BJ486K.” left out, “Mean values of three independent experiments, each with triplicate measurements, are given. (D) Primary human hepatocytes were inoculated with Con1/C3 in the presence of DMSO or increasing concentrations of BJ486K.” left out, “cells.” for “cells. Mean values of duplicate measurements including the error range are given.”\nNormal-appearing liver tissue from patients seronegative for HCV, hepatitis B virus, and human immunodeficiency virus (HIV) was obtained from adult patients undergoing partial hepatectomy for the therapy of metastases. […] Three days later, infectivity titers in culture supernatants were determined by focus-formation assay as previously described by (Pene et al., Journal of Viral Hepatitis 2009;16:705-15). […]"}}}
{"smiles": "COc1ccc(-c2cc(=O)c3c(O)c(O)c(OC)cc3o2)cc1", "note": "[BJ486K, 5,6-Dihydroxy-7-methoxy-2-(4-methoxy-phenyl)-chromen-4-one]", "values": [{"measurement": "IC50", "setting": "J8 (GT2b)", "result": 4140, "unit": "nM"}, {"measurement": "IC90", "setting": "J8 (GT2b)", "result": 8420, "unit": "nM"}, {"measurement": "IC50", "setting": "ED43 (GT4a)", "result": 740, "unit": "nM"}, {"measurement": "IC90", "setting": "ED43 (GT4a)", "result": 1780, "unit": "nM"}, {"measurement": "IC50", "setting": "HK6a (GT6a)", "result": 750, "unit": "nM"}, {"measurement": "IC90", "setting": "HK6a (GT6a)", "result": 2390, "unit": "nM"}, {"measurement": "luciferase activity (HCV RNA translation and replication)", "setting": "[1]", "result": "not changed"}, {"measurement": "IC50", "setting": "S52 (GT3a)", "result": 2890, "unit": "nM"}, {"measurement": "IC90", "setting": "S52 (GT3a)", "result": 10600, "unit": "nM"}, {"measurement": "IC50", "setting": "H77c (GT1a)", "result": 2460, "unit": "nM"}, {"measurement": "IC90", "setting": "H77c (GT1a)", "result": 11600, "unit": "nM"}, {"measurement": "IC50", "setting": "SA13 (GT5a)", "result": 1390, "unit": "nM"}, {"measurement": "IC90", "setting": "SA13 (GT5a)", "result": 5330, "unit": "nM"}, {"measurement": "IC50", "setting": "J4 (GT1b)", "result": 2350, "unit": "nM"}, {"measurement": "IC90", "setting": "J4 (GT1b)", "result": 9290, "unit": "nM"}, {"measurement": "antiviral activity against G451R mutant compared with wild type", "setting": "[2]", "result": "not changed"}, {"measurement": "IC50", "setting": "Con1/C3-HCV", "result": "~10000", "unit": "nM"}]}
